Experimental data: publication PMC3700073, “Synthesis and Biological Activity of New Thiopyrano[2,3-d]thiazoles Containing a Naphthoquinone Moiety” (Scientia Pharmaceutica, 2013)

Tests used:
HCT-15 (colon cancer) = assay: NCI five-dose assay; format: cell-based; settings: Homo sapiens, HCT-15, HCT-15, colon cancer
MCF-7 (breast cancer) = assay: NCI five-dose assay; format: cell-based; settings: Homo sapiens, MCF7, MCF-7, breast cancer
LOX IMVI (melanoma) = assay: NCI five-dose assay; format: cell-based; settings: Homo sapiens
BT-549 (breast cancer) = assay: NCI five-dose assay; format: cell-based; settings: Homo sapiens, BT-549, BT-549, breast cancer
SN12C (renal cancer) = assay: NCI five-dose assay; format: cell-based; settings: Homo sapiens
CCRF-CEM (leukemia) = assay: NCI five-dose assay; format: cell-based; settings: Homo sapiens
male mice = assay: Acute toxicity in vivo, median lethal dose; settings: intraperitoneal, approximate LD50 (Litchfield and Wilcoxon)
Procedure: The synthesized compounds were evaluated for their approximate LD50 in male mice. The mice were kept under a constant temperature and humidity in sterile cages with water and food. The stock solutions of the compounds used in this study were prepared immediately before usage and injected intraperitoneally (ip). The LD50 values (Tab. 3) were calculated using the method described by Litchfield and Wilcoxon.
The median lethal dose (LD50), the dose of the selected compounds that causes 50% mortality in mice, was determined from dose–response curves with at least four doses by the method of Litchfield and Wilcoxon.

PC-3 (prostate cancer) = assay: NCI five-dose assay; format: cell-based; settings: Homo sapiens
SNB-75 (CNS cancer) = assay: NCI five-dose assay; format: cell-based; settings: Homo sapiens, SNB-75, SNB-75, CNS cancer
[1] = tested on: MDA-MB-231/ATCC (breast cancer); assay: NCI five-dose assay; format: cell-based; settings: Homo sapiens, MDA-MB-231, MDA-MB-231/ATCC
A549/ATCC (NSCL cancer) = assay: NCI five-dose assay; format: cell-based; settings: Homo sapiens
HL-60(TB) (leukemia) = assay: NCI five-dose assay; format: cell-based; settings: Homo sapiens, HL-60, HL-60(TB)
[2] = tested on: MDA-MB-435 (breast cancer); assay: NCI five-dose assay; format: cell-based; settings: Homo sapiens, MDA-MB-435, MDA-MB-435, breast cancer
SK-MEL-2 (melanoma) = assay: NCI five-dose assay; format: cell-based; settings: Homo sapiens, SK-MEL-2, SK-MEL-2, melanoma
NCI-H23 (NSCL cancer) = assay: NCI five-dose assay; format: cell-based; settings: Homo sapiens
HCC-2998 (colon cancer) = assay: NCI five-dose assay; format: cell-based; settings: Homo sapiens, HCC 2998, HCC-2998, colon cancer
COLO 205 (colon cancer) = assay: NCI five-dose assay; format: cell-based; settings: Homo sapiens, COLO 205, COLO 205, colon cancer
SW-620 (colon cancer) = assay: NCI five-dose assay; format: cell-based; settings: Homo sapiens, SW-620, SW-620, colon cancer
OVCAR-5 (ovarian cancer) = assay: NCI five-dose assay; format: cell-based; settings: Homo sapiens, OVCAR-5, OVCAR-5, ovarian cancer
SF-295 (CNS cancer) = assay: NCI five-dose assay; format: cell-based; settings: Homo sapiens, SF-295, SF-295, CNS cancer
MALME-3M (melanoma) = assay: NCI five-dose assay; format: cell-based; settings: Homo sapiens
M14 (melanoma) = assay: NCI five-dose assay; format: cell-based; settings: Homo sapiens
[3] = tested on: Mycobacterium tuberculosis H37Rv strain (ATCC 27294); assay: Antimycobacterial pre-screening at 6.25 μg/mL (BACTEC 460 radiometric system); format: cell-based; settings: M. tuberculosis H37Rv
60 cancer cell lines = settings: over the cell line panel
HS 578T (breast cancer) = assay: NCI five-dose assay; format: cell-based, human; settings: Homo sapiens, Hs-578T, HS 578T, breast cancer

COc1cc(C2C3=C(Sc4[nH]c(=O)sc42)C(=O)c2ccccc2C3=O)ccc1OCc1ccccc1 (centres unmarked) [Compound 4e, 11-[4-(Benzyloxy)-3-methoxyphenyl]-3,11-dihydro-2H-benzo[6,7]thiochromeno[2,3-d]-[1,3]thiazole-2,5,10-trione]
GI50 (HCT-15 (colon cancer)): 11.5 µM | GI50 (MCF-7 (breast cancer)): 12.9 µM | GI50 (LOX IMVI (melanoma)): 8.03 µM | GI50 (BT-549 (breast cancer)): 13.4 µM | GI50 (SN12C (renal cancer)): 15.3 µM | GI50 (CCRF-CEM (leukemia)): 23.4 µM | LD50ip (male mice): >1000 mg/kg | GI50 (PC-3 (prostate cancer)): 17.7 µM | GI50 (SNB-75 (CNS cancer)): 7.76 µM | GI50 [1]: 7.81 µM | GI50 (A549/ATCC (NSCL cancer)): 3.16 µM | GI50 (HL-60(TB) (leukemia)): 15.2 µM | GI50 [2]: 12 µM | GI50 (SK-MEL-2 (melanoma)): 20.3 µM | GI50 (NCI-H23 (NSCL cancer)): 3.99 µM | GI50 (HCC-2998 (colon cancer)): 16.6 µM | GI50 (COLO 205 (colon cancer)): 10.3 µM | GI50 (SW-620 (colon cancer)): 22.7 µM | GI50 (OVCAR-5 (ovarian cancer)): 32.1 µM | GI50 (SF-295 (CNS cancer)): 5.78 µM | GI50 (MALME-3M (melanoma)): 7.12 µM | GI50 (M14 (melanoma)): 6.9 µM | inhibition at 6.25 µg/mL ([3]; 6.25 μg/mL): 15% | MIC90 ([3]; pre-screening, read-out: Estimation of MIC90): > 6.25 µg/mL | TGI MG_MID (60 cancer cell lines): 40.74 µM | GI50 (HS 578T (breast cancer)): 4.52 µM
